Results from US9744221B2, “Method and compositions for inhibiting or preventing adverse effects of oral antibiotics” (Synthetic Biologics, Inc., priority 2014, dated 2017).

Tests used:
[1] = test system: intestinal microbiome; assay: Fecal microbiome whole genome shotgun sequencing in piglets given oral amoxicillin with or without SYN-004 (Example 1); format: in vivo, Yorkshire piglets; conditions: Day -7 to Day 9, FIGS. 3 and 4
Method: A study was performed using normal piglets to determine if SYN-004, when delivered orally with oral amoxicillin, functions to protect the microbiome from amoxicillin-induced dysbiosis.
A total of ten, two-month old Yorkshire piglets, approximately 20 kg each, were used for this study. All 10 animals were treated with oral amoxicillin twice a day for a total of 7 days, and one cohort of 5 animals was also treated with oral SYN-004 four times a day for a total of 9 days.
Two pre-treatment fecal samples were obtained, the first 4 days after the animals arrived at the animal treatment facility (Day −7), and the second 7 days after arrival (Day −4). An additional 3 fecal samples were collected at Day 4, Day 8, and Day 9. […]
DNA was isolated from the fecal samples and subjected to whole genome shotgun sequencing using an Illumina HiSeq system with a target of 20 million 100 bp single reads per sample. […]
The median similarity based on the relative bacterial strain abundance was calculated.
A statistical analysis was performed to determine the probability that the microbiomes before and after antibiotic treatment remained the same or were different. The microbiome sequence data were analyzed using a parameterization of the Dirichlet-Multinomial distribution (La Rosa et al., 2012) to perform a Likelihood Ratio Test.

[2] = in vivo; conditions: Yorkshire, pig, po, 20 mg/kg
Method: A total of ten, two-month old Yorkshire piglets, approximately 20 kg each, were used for this study. All 10 animals were treated with oral amoxicillin twice a day for a total of 7 days, and one cohort of 5 animals was also treated with oral SYN-004 four times a day for a total of 9 days. The SYN-004 treatment was started the day before amoxicillin treatment and continued for a day after amoxicillin was stopped (FIG. 1).
On Study Day 0, Group 2 (Pigs 6-10) received one size 0 capsule of SYN-004; containing 75 mg of SYN-004, orally, four times a day at 7 am, 12 pm, 5 pm, and 10 pm for a total of 9 days. Pigs were fed 3 times a day, after SYN-004 dosing at 7 am, after SYN-004 dosing at 12 pm, and after SYN-004 dosing at 5 pm. Beginning on Study Day 1, Groups 1 and 2 (Pigs 1-10) received oral amoxicillin (fruit flavored oral suspension, Sandoz, NDC: 0781-6157-46, Lot #EY9130; 20 mg/kg) twice a day at 7 am and at 5 pm, for a total of 7 days. Animals received the amoxicillin first, followed by the SYN-004, then feeding.
On Day 2, after 4 amoxicillin doses, animals were bled and serum collected. Blood was collected aseptically from the vena cava from anesthetized animals. Three blood draws were performed, at 1 hr, 3 hrs, and 8 hrs after amoxicillin administration. A Telazol cocktail was administered intramuscularly at a minimal dose (1 mL or less per 50 lbs) to achieve light anesthesia/sedations. At each timepoint, approximately 9 mL of blood was collected into a serum separator vacutainer tube.
Amoxicillin levels in the pig serum were quantified using a modification of a validated HPLC-based assay (Du et al., 2005). […] The assay was linear over a range of 1 to 30 ug/mL (R=0.999). Interday coefficients of variation for the low (1.5 ug/mL) and high (20 ug/mL) quality control samples were 3.9% and 4.9% respectively. Interday coefficients of variation were 3.8% and 2.8%, respectively. Peak height was used to integrate all the peaks. Sigma Plot was used to calculate drug concentrations and a −1 weighting factor was used. […]

CC1(C)S[C@@H]2[C@H](NC(=O)[C@H](N)c3ccc(O)cc3)C(=O)N2[C@H]1C(=O)O [amoxicillin, Amoxicillin]
diversity of the microbiome (median percent similarity of strain relative abundance) [1]: continued to lose diversity throughout the duration of the study
concentration at 1 h [2]: 8900 ± 800 ng/mL
concentration at 3 h [2]: 3900 ± 300 ng/mL
concentration at 8 h [2]: 1500 ± 300 ng/mL
